{"source": "patent US11357825B2", "about": "“Means for treating cardiovascular disease” (Universitaetsklinikum Hamburg-Eppendorf, priority 2017, dated 2022)", "key": {"[1]": {"test_system": "adult rat ventricular cardiomyocytes", "test": "cell contractility assay, edge detection method (IonOptix)", "assay_type": "cell-based", "conditions": "atenolol 100 nM, 20 min; 1 Hz pacing; with and without 10 nM isoproterenol", "description": "FIG. 7. Experimental data for cardiomyocyte hypertrophy (A) and cell contractility (B) assays performed with freshly isolated adult rat ventricular cardiomyocytes (CM) using atenolol coated nanoparticles (Atenolol NP) and control nanoparticles.\nFreshly isolated adult rat ventricular CMs were incubated for 20 min with atenolol (100 nM), atenolol coated or control nanoparticles (both at 30 nM) and cell contractility was measured using edge detection method (IonOptix) at 1 Hz pacing frequency with and without stimulation with 10 nM isoproterenol."}, "β1-AR": {"molecular_target": "β1-AR (Homo sapiens, UniProt P08588)", "sequence (P08588 whole entry)": "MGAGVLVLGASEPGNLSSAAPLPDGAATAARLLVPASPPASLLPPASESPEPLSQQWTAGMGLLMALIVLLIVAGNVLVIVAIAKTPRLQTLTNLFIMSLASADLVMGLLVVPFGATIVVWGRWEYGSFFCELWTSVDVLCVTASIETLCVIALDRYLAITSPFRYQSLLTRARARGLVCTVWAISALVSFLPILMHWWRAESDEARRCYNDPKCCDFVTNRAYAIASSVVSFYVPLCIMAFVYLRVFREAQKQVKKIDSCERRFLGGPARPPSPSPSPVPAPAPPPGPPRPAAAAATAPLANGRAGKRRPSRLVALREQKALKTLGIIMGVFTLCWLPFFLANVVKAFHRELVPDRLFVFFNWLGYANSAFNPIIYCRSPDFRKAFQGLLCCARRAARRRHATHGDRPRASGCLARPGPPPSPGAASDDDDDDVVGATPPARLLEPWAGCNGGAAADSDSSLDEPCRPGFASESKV", "conditions": "HEK293 cells stably expressing β1-AR; pretreatment 20 min with 30 nM; ISO 0.1 nM", "from_the_text": "Experimental data with HEK293 cells stably expressing β1-AR and the cAMP biosensor Epac1-camps."}}}
{"molecule": "CC(C)NCC(O)COc1ccc(CC(N)=O)cc1", "note": "(centres unmarked) [atenolol]", "values": [{"measurement": "cell contractility", "setting": "[1]", "result": "decrease cell contractility"}, {"measurement": "inhibition of ISO-induced cAMP increase (CFP/YFP ratio)", "setting": "β1-AR", "result": "efficacious in blocking β1-AR dependent cAMP synthesis"}]}
